These results are taken from EP1680415B1, “PYRROLIDINYL UREA DERIVATIVES AS ANGIOGENESIS INHIBITORS” (ABBOTT LABORATORIES, priority 2003, dated 2005).

For the first assay, the system named is HMVEC. Nature of the assay: human microvascular endothelial (HMVEC) migration assay. It counts as cell-based. The note with it: Homo sapiens; Inhibition of HMVEC migration; 0.1 nM; activators 15 ng/mL bFGF/VEGF; 4 hours at 37 °C; compared to a positive control. How it is done: The human microvascular endothelial (HMVEC) migration assay was run according to the procedure of S. S. Tolsma, O. V. Volpert, D. J. Good, W. F. Frazier, P. J. Polverini and N. Bouck, J. Cell Biol. 122, 497-511 (1993).
The HMVEC migration assay was carried out using Human Microvascular Endothelial Cells-Dermal (single donor) and Human Microvascular Endothelial Cells, (neonatal). The BCE or HMVEC cells were starved overnight in DME containing 0.01% bovine serum albumin (BSA). Cells were then harvested with trypsin and resuspended in DME with 0.01 % BSA at a concentration of 1.5 X 10^6 cells per mL. Cells were added to the bottom of a 48 well modified Boyden chamber (Nucleopore Corporation, Cabin John, MD). The chamber was assembled and inverted, and cells were allowed to attach for 2 hours at 37 °C to polycarbonate chemotaxis membranes (5 µm pore size) that had been soaked in 0.01 % gelatin overnight and dried. The chamber was then reinverted, and test substances (total volume of 50 µL), including activators, 15 ng/mL bFGF/VEGF, were added to the wells of the upper chamber. The apparatus was incubated for 4 hours at 37 °C. Membranes were recovered, fixed and stained (Diff Quick, Fisher Scientific) and the number of cells that had migrated to the upper chamber per 3 high power fields counted. Background migration to DME + […] was subtracted and the data reported as the number of cells migrated per 10 high power fields (400X) or, when results from multiple experiments were combined, as the percent inhibition of migration compared to a positive control.
Compound `Cc1ccc(C(=O)N2CC[C@@H](NC(=O)N(C)CCC(C)C)C2)cn1` [Example 61, N-methyl-N-(3-methylbutyl)-N'-{(3R)-1-[(6-methylpyridin-3-yl)carbonyl]pyrrolidin-3-yl}urea] showed an inhibition at 0.0001 µM of 66%.

`C#CCN(C)C(=O)N[C@@H]1CCN(C(=O)c2ccc(C)nc2)C1` [Example 62, N-methyl-N'-{(3R)-1-[(6-methylpyridin-3-yl)carbonyl]pyrrolidin-3-yl}-N-prop-2-ynylurea] returned an inhibition at 0.0001 µM of 54%.

In turn, `CCCN(CC)C(=O)N[C@@H]1CCN(C(=O)c2ccc(C)nc2)C1` [Example 63, N-ethyl-N'-{(3R)-1-[(6-methylpyridin-3-yl)carbonyl]pyrrolidin-3-yl}-N-propylurea] displayed an inhibition at 0.0001 µM of 72%.

The compound `CCCN(C(=O)N[C@@H]1CCN(C(=O)c2ccc(C)nc2)C1)C(C)C` [Example 64, N-isopropyl-N'-{(3R)-1-[(6-methylpyridin-3-yl)carbonyl]pyrrolidin-3-yl}-N-propylurea] had an inhibition at 0.0001 µM of 70%.

The compound `CCCCN(CCCC)C(=O)N[C@@H]1CCN(C(=O)c2ccc(C)nc2)C1` [Example 66, N,N-dibutyl-N'-{(3R)-1-[(6-methylpyridin-3-yl)carbonyl]pyrrolidin-3-yl} urea] had an inhibition at 0.0001 µM of 84%.

The compound `Cc1ccc(C(=O)N2CC[C@@H](NC(=O)N(CCC#N)C3CC3)C2)cn1` [Example 67, N-(2-cyanoethyl)-N-cyclopropyl-N'-{(3R)-1-[(6-methylpyridin-3-yl)carbonyl]pyrrolidin-3-yl}urea] registered an inhibition at 0.0001 µM of 73%.

Consider `CCCC1CCN(C(=O)N[C@@H]2CCN(C(=O)c3ccc(C)nc3)C2)CC1` [Example 69, N-{(3R)-1-[(6-methylpyridin-3-yl)carbonyl]pyrrolidin-3-yl} -4-propylpiperidine-1-carboxamide], for which the inhibition at 0.0001 µM amounted to 87%.

`Cc1ccc(C(=O)N2CC[C@@H](NC(=O)N3CCCCCC3)C2)cn1` [Example 70, N-{(3R)-1-[(6-methylpyridin-3-yl)carbonyl]pyrrolidin-3-yl}azepane-1-carboxamide]: testing at 0.0001 µM gave an inhibition of 97%.

Compound `CCN(CCOC)C(=O)N[C@@H]1CCN(C(=O)c2ccc(C)nc2)C1` [Example 71, N-ethyl-N-(2-methoxyethyl)-N'-{(3R)-1-[(6-methylpyridin-3-yl)carbonyl]pyrrolidin-3-yl}urea] returned an inhibition at 0.0001 µM of 53%.

Consider `CCCN(CCOC)C(=O)N[C@@H]1CCN(C(=O)c2ccc(C)nc2)C1` [Example 72, N-(2-methoxyethyl)-N'-{(3R)-1-[(6-methylpyridin-3-yl)carbonyl]pyrrolidin-3-yl}-N-propylurea], for which the inhibition at 0.0001 µM amounted to 89%.

The compound `COCCN(CCOC)C(=O)N[C@@H]1CCN(C(=O)c2ccc(C)nc2)C1` [Example 73, N,N-bis(2-methoxyethyl)-N'-{(3R)-1-[(6-methylpyridin-3-yl)carbonyl]pyrrolidin-3-yl}urea] registered an inhibition at 0.0001 µM of 71%.

Compound `Cc1ccc(C(=O)N2CC[C@@H](NC(=O)N3CC4(C)CC3CC(C)(C)C4)C2)cn1` (stereo partly drawn) [Example 74, 1,3,3-trimethyl-N-{(3R)-1-[(6-methylpyridin-3-yl)carbonyl]pyrrolidin-3-yl}-6-azabicyclo[3.2.1]octane-6-carboxamide] showed an inhibition at 0.0001 µM of 68%.

Consider `CCC(C)N1CCN(C(=O)N[C@@H]2CCN(C(=O)c3ccc(C)nc3)C2)CC1` (stereo partly drawn) [Example 76, 4-sec-butyl-N-{(3R)-1-[(6-methylpyridin-3-yl)carbonyl]pyrrolidin-3-yl}piperazine-1-carboxamide], for which the inhibition at 0.0001 µM was found to be 58%.

In turn, `CCOCCN1CCN(C(=O)N[C@@H]2CCN(C(=O)c3ccc(C)nc3)C2)CC1` [Example 77, 4-(2-ethoxyethyl)-N-{(3R)-1-[(6-methylpyridin-3-yl)carbonyl]pyrrolidin-3-yl}piperazine-1-carboxamide] displayed an inhibition at 0.0001 µM of 58%.

On to `Cc1ccc(C(=O)N2CC[C@@H](NC(=O)N3CCN(C4CCCCC4)CC3)C2)cn1` [Example 78, 4-cyclohexyl-N-{(3R)-1-[(6-methylpyridin-3-yl)carbonyl]pyrrolidin-3-yl}piperazine-1-carboxamide], for which the inhibition at 0.0001 µM stood at 67%.

Turning to `Cc1ccc(C(=O)N2CC[C@@H](NC(=O)N3CCN(CCc4cccs4)CC3)C2)cn1` [Example 79, N-{(3R)-1-[(6-methylpyridin-3-yl)carbonyl]pyrrolidin-3-yl}-4-(2-thien-2-ylethyl)piperazine-1-carboxamide], 0.0001 µM produced 48% inhibition.

The compound `Cc1ccc(C(=O)N2CC[C@@H](NC(=O)N3CCN(CC(=O)N4CCCCC4)CC3)C2)cn1` [Example 80, N-{(3R)-1-[(6-methylpyridin-3-yl)carbonyl]pyrrolidin-3-yl}-4-(2-oxo-2-piperidin-1-ylethyl)piperazine-1-carboxamide] showed an inhibition at 0.0001 µM of 73%.

Take `Cc1ccc(C(=O)N2CC[C@@H](NC(=O)N3CCN(C(=O)C4CCCCC4)CC3)C2)cn1` [Example 81, 4-(cyclohexylcarbonyl)-N-{(3R)-1-[(6-methylpyridin-3-yl)carbonyl]pyrrolidin-3-yl}piperazine-1-carboxamide]: the inhibition at 0.0001 µM came to 55%.

With `Cc1ccc(C(=O)N2CC[C@@H](NC(=O)N(CCO)Cc3ccccc3)C2)cn1` [Example 82, N-benzyl-N-(2-hydroxyethyl)-N'-{(3R)-1-[(6-methylpyridin-3-yl)carbonyl]pyrrolidin-3-yl}urea], the inhibition at 0.0001 µM was 57%.

Consider `Cc1ccc(C(=O)N2CCC(NC(=O)N(C)CC(O)c3ccccc3)C2)cn1` (centres unmarked) [Example 83, N-(2-hydroxy-2-phenylethyl)-N-methyl-N'-{1-[(6-methylpyridin-3-yl)carbonyl]pyrrolidin-3-yl}urea], for which the inhibition at 0.0001 µM is 80%.

`Cc1ccc(C(=O)N2CC[C@@H](NC(=O)N(C)CCc3ccccn3)C2)cn1` [Example 84, N-methyl-N'-{(3R)-1-[(6-methylpyridin-3-yl)carbonyl]pyrrolidin-3-yl}-N-(2-pyridin-2-ylethyl)urea] returned an inhibition at 0.0001 µM of 62%.

Take `Cc1ccc(C(=O)N2CC[C@@H](NC(=O)N3CCC(O)CC3)C2)cn1` [Example 85, 4-hydroxy-N-{(3R)-1-[(6-methylpyridin-3-yl)carbonyl]pyrrolidin-3-yl}piperidine-1-carboxamide]: the inhibition at 0.0001 µM came out at 55%.

In the case of `Cc1ccc(C(=O)N2CC[C@@H](NC(=O)N3CCC(C(N)=O)CC3)C2)cn1` [Example 86, N^1-{(3R)-1-[(6-methylpyridin-3-yl)carbonyl]pyrrolidin-3-yl}piperidine-1,4-dicarboxamide], 0.0001 µM produced 74% inhibition.

The assay is the same for the next values; noted with them: Homo sapiens; Inhibition of HMVEC migration; 1 nM; activators 15 ng/mL bFGF/VEGF; 4 hours at 37 °C; compared to a positive control.
Take `CCCN(C(=O)N[C@@H]1CCN(C(=O)c2ccc(C)nc2)C1)C(C)CC` (stereo partly drawn) [Example 65, N-(sec-butyl)-N'-{(3R)-1-[(6-methylpyridin-3-yl)carbonyl]pyrrolidin-3-yl}-N-propylurea]: the inhibition at 0.001 µM was 98%.

On to `CCC1CCCCN1C(=O)N[C@@H]1CCN(C(=O)c2ccc(C)nc2)C1` (stereo partly drawn) [Example 68, 2-ethyl-N-{(3R)-1-[(6-methylpyridin-3-yl)carbonyl]pyrrolidin-3-yl}piperidine-1-carboxamide], for which the inhibition at 0.001 µM was 46%.

`Cc1ccc(C(=O)N2CC[C@@H](NC(=O)N(C)CCc3ccccc3)C2)cn1` [Example 75, N-methyl-N'-{(3R)-1-[(6-methylpyridin-3-yl)carbonyl]pyrrolidin-3-yl}-N-(2-phenylethyl)urea]: the inhibition at 0.001 µM was determined as 76%.
